From patent US6525089B1, “Pharmaceutical composition containing decursin” (Binex Co., Ltd., priority 1998, dated 2003)
Several values for one entry are separate records, joined by “and”; a condition that tells them apart may be missing. Equal values may be shown once. Read-outs that look alike come from different tables or passages of the source.

Legend:
[1] = format: in vivo, rat; conditions: individual rats 1-4, start 200 g, four days after treatment
Experimental: A total of 10 male SD rats (body weight: 200 g) were used for this experiment. […] The animals were sacrificed and again weighed four days after treatment. […] Blood samples were also taken and left to sit for 30 minutes to isolate the sera, which was used to determine BUN, creatinine and sGPT values as markers of […].

ICR mice [2] = experiment: BUN and MDA in blood and MDA in renal tissue, alloxan-treated mice; format: in vivo; conditions: alloxan 75 mg/kg i.v. + decursin 50 mg/kg orally for 10 days
Experimental: (§1) 2 days after ICR mice were given alloxan (75 mg/kg, i.v.), their glucose levels at fasting were measured to select high-glucose mice. The high-glucose mice were divided into two groups; physiological saline solution was given to one group, while decursin was orally administered to the other group at a dose of 50 mg/kg for 10 days. The alloxan-free group was also orally given physiological saline solution for 10 days. The body weighs were checked periodically, together with urinary tests. To isolate their sera and kidney, mice were slightly anesthetized with ether and their abdomens were dissected. The blood samples were collected from heart to isolate the sera. The kidney was perfused with 0.9% NaCl and isolated after removal of the blood. Then the weight of right kidney was measured. Further, to measure the protein amount from the kidney tissues, these tissues were assayed according to the Bradford method using Bio-Rad protein assay kit in the presence of bovine serum albumin as a reference standard. To measure the MDA in the kidney tissues, 0.4 ml of 10% sodium dodecylsulfate was added to 0.5 ml of 10% kidney-tissue homogenization solution and left in water bath at 37° C. for 30 minutes; With the subsequent addition of 0.1N-HCl (2 ml) and 0.67% TBA (1 ml), the mixture was voltexed and left in boiling water bath for 30 minutes. The mixture was further cooled in ice bath for 2˜3 minutes to stop the reaction. Then 2 ml of n-butanol was added to the mixture, stirred well and centrifuged at 3000 rpm for 10 minutes. The supernatant was collected to measure the absorbance at 532 nm. 10 μg/ml tetraethoxypropane (TEP) was employed as a reference standard. To measure the MDA in sera, 0.8% thiobarbituric acid (TBA) was added to 0.5 ml of sera and left in boiling water bath for 30 minutes. The mixture was further cooled in ice bath for 2˜3 minutes to stop the reaction. The supernatant was collected to measure the absorbance at 532 nm. 10 μg/ml TEP was employed as a reference standard.
Mice were orally given decursin at a dose of 50 mg/kg for 10 days continuously. Then various parameters such as BUN and MDA in the blood as a marker of renal failure were measured, together with urinary test. When […] (table 4), the BUN value of single alloxan-treated group, 17.4±3.7 mg/dl was recovered to the normal level (4.8±0.6 mg/dl) by the treatment of decursin. The MDA value of single alloxan-treated group, 0.51±0.07, was reduced to 0.36±0.03 by the treatment of decursin, which was similar to a normal control group. Thus it was noted that the damage in the kidney was completely recovered. Since the reduction of both MDA values in the blood and kidney tissues may be clinically reasonable and desirable, the MDA value in the kidney tissues was measured. As a result, the MDA value in the kidney tissues of a single alloxan-treated group, 13.24±5.93, was reduced to 5.63±0.99 by the treatment of decursin, which was lower than that of normal control group (8.44±1.01).

ICR mice [3] = experiment: Urinary test, alloxan-treated mice; format: in vivo; conditions: Alloxan + decursin group (50 mg/kg orally, 10 days)
Experimental: as §1

[4] = Body weight, alloxan-treated mice; format: in vivo; conditions: ICR mice, alloxan + decursin 50 mg/kg orally for 10 days
Experimental: 2 days after ICR mice were given alloxan (75 mg/kg, i.v.), their glucose levels at fasting were measured to select high-glucose mice. The high-glucose mice were divided into two groups; physiological saline solution was given to one group, while decursin was orally administered to the other group at a dose of 50 mg/kg for 10 days. The alloxan-free group was also orally given physiological saline solution for 10 days. The body weighs were checked periodically, together with urinary tests. To isolate their sera and kidney, mice were slightly anesthetized with ether and their abdomens were dissected. The blood samples were collected from heart to isolate the sera. The kidney was perfused with 0.9% NaCl and isolated after removal of the blood. Then the weight of right kidney was measured. Further, to measure the protein amount from the kidney tissues, these tissues were assayed according to the Bradford method using Bio-Rad protein assay kit in the presence of bovine serum albumin as a reference standard. […] The supernatant was collected to measure the absorbance at 532 nm. […] The supernatant was collected to measure the absorbance at 532 nm. […]

U-937 cells [5] = experiment: Phagocytosis test; format: cell-based, human; conditions: 1 × 10^−7M, incubated 4 days
Experimental: U-937 cells were plated on a cell culture dish at a concentration of 2×10^5 cells/ml in a medium containing 10^−7M decursin and incubated in a 5% CO2 incubator at 37° C.
In the phagocytosis test, 10^6 cells were well stirred and pelleted by centrifugation at 2000 rpm for 5 minutes. 1 ml of 0.2% serum free medium solution in polystyrene particle were added to the pellets, swayed and incubated at 37° C. for 4 hours. After being washed with phosphate buffered saline (PBS) three times, cell pellets were harvested and then about 200 μl of DPBS was added. The solution was lightly swayed and checked under a microscope to observe a minimum number of 200 cells. The number of cells containing the particles was calculated by percentage.
The results of phagocytosis test designed to assess the functional change according to differentiation of U-937 cells was shown in the following Table 8.

U-937 cells [6] = experiment: Esterase activity test: α-naphthyl acetate esterase; format: cell-based, human; conditions: percentage of cells showing activity
Experimental: To determine α-naphthyl acetate esterase activity in the esterase activity test, the cultured solution of U-937 cells was pelleted by centrifugation at 2000 rpm for 5 minutes, followed by the addition of 100 μl PBS to prepare a cell-concentrated solution. A drop of the cell solution was put on a slide glass and dried for more than 1 hour. Then 40 ml of deionized water was preheated at 37° C. 1 ml of […] solution was mixed with 1 ml of Fast Blue BB base solution and left for 2 minutes. The mixture, being turned to yellow color with thick brown, was added to 40 ml of the preheated deionized water. After the addition of 5 ml of TRIZMAL TM 7.6 buffer solution (Sigma Co. 870-2) and 1 ml of α-naphthyl acetate solution, the resulting solution, which was turned to green color, was poured into a petri dish. The cells on a slide glass were fixed with citrate-acetone-formaldehyde solution (CAF solution) at room temperature. The cells were soaked in the previously prepared solution and incubated at 37° C. for 30 minutes at a dark place. The cells were completely washed with deionized water for more than 2 minutes and counterstained with hematoxylin solution for 2 minutes, washed with tap water and dried in the air. After completely dried, the cells were observed under a microscope to determine the blackish cell numbers.
Thus it was considered that the cells were differentiated into macrophage.like cells by the action of decursin.

CC(C)=CC(=O)O[C@H]1Cc2cc3ccc(=O)oc3cc2OC1(C)C [decursin]
Body weight ([1]; post-treatment group (decursin after cisplatin)): 190 g and 185 g and 180 g (2×)
Body weight ([1]; pre-treatment group (decursin before cisplatin)): 184 g and 190 g and 180 g (2×)
BUN (ICR mice [2]): 4.8 ± 0.6 mg/dL
MDA in blood (ICR mice [2]): 0.36 ± 0.03 µg/mL
MDA in renal tissue (ICR mice [2]): 5.63 ± 0.99 µg/g
Urinary test Bilirubin: count in category + (ICR mice [3]): 2
Urinary test Bilirubin: count in category − (ICR mice [3]): 8
Urinary test Glucose: count in category + (ICR mice [3]): 1
Urinary test Glucose: count in category − (ICR mice [3]): 9
Urinary test Ketone: count in category − (ICR mice [3]): 10
Urinary test Nitrite: count in category − (ICR mice [3]): 10
Urinary test Occult blood: count in category + (ICR mice [3]): 2
Urinary test Occult blood: count in category − (ICR mice [3]): 8
Urinary test Protein: count in category − (ICR mice [3]): 10
Urinary test Specific gravity: count in category − (ICR mice [3]): 10
Urinary test Urobilinogen: count in category + (ICR mice [3]): 1
Urinary test Urobilinogen: count in category − (ICR mice [3]): 9
Urinary test pH: count in category − (ICR mice [3]): 10
weight loss of the alloxan-treated group [4]: significantly reduced
Phagocytosis test: cells showing phagocytosis activity (U-937 cells [5]): 28.6%
Phagocytosis test: cells showing phagocytosis activity (U-937 cells [5]; listed as Decursin): 28.6 ± 1.2%
α-Naphtylacetate esterase Activity (%) (U-937 cells [6]): 83%
α-Naphtylacetate esterase Activity (%) (U-937 cells [6]; listed as Decursin): 83.3 ± 3.0%
